Legend:
[1] = molecular target: T1, Human ACC2 (ACC2 (Nd), N terminal deleted) (Homo sapiens, UniProt O00763); test: Measurement of ACC2 inhibitory activity (malachite green, recombinant ACC2 (Nd)); format: biochemical; conditions: 10 μM test compound, 20 min preincubation at 30° C., 20 min reaction; for inhibition at 10 µM: read-out: ACC2 inhibitory rate at 10 μM (%)
T1 construct: made in house; host or cells: SF-9 insect cells (baculovirus)
Method: The ACC2 inhibitory action of the compound of the present invention was evaluated by the following method.
(1) Cloning of Human ACC2 Gene and Preparation of Recombinant Baculovirus
Human ACC2 gene was cloned by PCR using a human skeletal muscle cDNA library (Clontech) as a template and Primer 1 and Primer 2 shown below. Primer 1 and Primer 2 were prepared by adding SalI, XbaI restriction enzyme recognition sequences based on the information of the base sequence of human ACC2 gene (Genbank Accession U89344).
(§1) PCR was performed using Pyrobest DNA polymerase (TAKARA BIO INC.). The obtained PCR product was cloned to pT7 Blue vector (Novagen) and after confirmation of the base sequence, digested with restriction enzymes SalI and XbaI. The obtained DNA fragment was inserted into pFAST-BacHTa (Invitrogen) digested with restriction enzymes Sail and XbaI to give expression plasmid ACC2/pFAST-BacHTa.
A plasmid for expression of ACC2 without a mitochondrial targeting sequence was prepared by PCR using the expression plasmid as a template, and Primer 3 (salI restriction enzyme recognition sequence was added) and Primer 4, which are prepared by reference to the information of human ACC2 gene base sequence (Genbank Accession U89344).
as §1, with “Pyrobest-DNA” for “Pyrobest DNA”, “Aflil.” for “XbaI.”, “ACC2/pFAST-BacHTa” for “pFAST-BacHTa (Invitrogen)”, “SalI” for “Sail”, “AfilI” for “XbaI”, “ACC2mito7/pFAST-BacHTa.” for “ACC2/pFAST-BacHTa.”
Using the expression plasmid ACC2mito7/pFAST-BacHTa and BAC-TO-BAC Baculovirus Expression System (Invitrogen), virus stock BAC-ACC2 of recombinant Baculovirus (N terminal deleted (hereinafter Nd)) was prepared.
(2) Preparation of ACC2 (Nd) Protein
SF-9 cells (Invitrogen) were inoculated to a medium (2 L) for insect cells (Sf-900IISFM medium (Invitrogen) containing 10% fetal bovine serum (Trace), 50 mg/L Gentamicin (Invitrogen), 0.1% Pluronic F-68 (Invitrogen)) at 0.5×10^6 cells/mL, and cultured with shaking in Wave Bioreactor (Wave) at 27° C., 20 rpm, rocking angle 6°, oxygen concentration 30%.
On day 4 of the culture, 3 L of the medium for insect cells was added, the rocking angle was set to 8°, and the cells were further cultured. On day 5 of the culture, 100 mL of recombinant Baculovirus BAC-ACC2 (Nd) was added, 5 L of the medium for insect cells was further added, the rocking angle was set to 11°, and the cells were cultured for 3 days. The culture medium was centrifuged at 1000×g for 10 min to give virus-infected cells. The cells were washed with phosphate buffered saline (Invitrogen) and centrifuged under the same conditions. The obtained cells were cryopreserved at −80° C.
The cryopreserved cells were thawed in ice and suspended in 900 mL of 25 mM HEPES buffer (pH 7.5) containing 10% Glycerol, 0.13 M NaCl, 1 mM EDTA, 25 mM Sodium β-Glycerophosphate and 1 mM Sodium Orthovanadate, and supplemented with Complete Protease Inhibitor (Nippon Boehringer Ingelheim Co., Ltd.). The obtained suspension was homogenized three times in a polytron homogenizer (Kinematica) at 20,000 rpm for 30 sec. The obtained cell disruption solution was clarified by centrifugation at 31000×g for 60 min, and filtered through a 0.45 μm filter. The filtrate was passed through a column packed with 60 mL of Ni-NTA Super Flow Gel (QUIAGEN) at a flow rate of about 5 mL/min. The column was washed with buffer A (50 mM HEPES (pH 7.5) containing 0.3 M NaCl), further washed with buffer A containing 20 mM Imidazole, and eluted with buffer A containing 100 mM Imidazole. The eluate was concentrated with Vivaspin 20 (Vivascience) with a molecular weight cut off of 30K. The obtained concentrate was dialyzed against 50 mM HEPES (pH 7.5) containing 10 mM MgCl2, 2 mM Dithiothreitol, 10 mM Tripotassium Citrate and 0.3 M NaCl. […]

[2] = test system: Malonyl-CoA content of femoral muscle; test: Malonyl CoA content measurement in femoral muscle after gavage (LC/MS/MS); format: in vivo; conditions: male F344/Jcl rats, 10 mg/kg by gavage, femoral muscle 2 hours after dosing; Mean ± S.D.; vehicle 1.955 ± 0.496
Method: Male F344/Jcl rats (CLEA Japan, Inc., Tokyo) purchased at 5 weeks of age were acclimated to the rearing environment, and used for an experiment of malonyl CoA content measurement at 10 weeks of age. In the experiment of malonyl CoA content measurement, the body weight was measured in the morning (8:00-11:00) 3 days before administration of a test compound, and the rats were divided into groups free of dispersion in the body weight between administration groups. The test compound was prepared as a 0.5% methyl cellulose (Wako) suspension to a dose of 5 mL/kg, in the afternoon (12:00-17:00) of one day before administration by gavage, and administered by gavage according to the body weight on the day of test compound administration. The vehicle group was administered with a solvent (0.5% methyl cellulose) alone by gavage. […]
A sample homogenate for the malonyl CoA measurement was prepared by disrupting a frozen tissue with a measured weight in a Multi-beads shocker (MB400U, Yasui Kikai Corporation), adding an extract (6% perchloric acid:aqueous di-n-butylammonium acetate solution (IPC-DBAA, 0.5 mol/L, TOKYO CHEMICAL INDUSTRY CO., LTD.)=1000:1, 500 μL) containing an internal standard substance ([^13C3]-malonyl CoA lithium salt (100 pmol/mL, Sigma-Aldrich)), and applying the mixture to the Multi-beads shocker again. […]

T1 sequence (O00763 117-2458 limits assumed, stated change not applied): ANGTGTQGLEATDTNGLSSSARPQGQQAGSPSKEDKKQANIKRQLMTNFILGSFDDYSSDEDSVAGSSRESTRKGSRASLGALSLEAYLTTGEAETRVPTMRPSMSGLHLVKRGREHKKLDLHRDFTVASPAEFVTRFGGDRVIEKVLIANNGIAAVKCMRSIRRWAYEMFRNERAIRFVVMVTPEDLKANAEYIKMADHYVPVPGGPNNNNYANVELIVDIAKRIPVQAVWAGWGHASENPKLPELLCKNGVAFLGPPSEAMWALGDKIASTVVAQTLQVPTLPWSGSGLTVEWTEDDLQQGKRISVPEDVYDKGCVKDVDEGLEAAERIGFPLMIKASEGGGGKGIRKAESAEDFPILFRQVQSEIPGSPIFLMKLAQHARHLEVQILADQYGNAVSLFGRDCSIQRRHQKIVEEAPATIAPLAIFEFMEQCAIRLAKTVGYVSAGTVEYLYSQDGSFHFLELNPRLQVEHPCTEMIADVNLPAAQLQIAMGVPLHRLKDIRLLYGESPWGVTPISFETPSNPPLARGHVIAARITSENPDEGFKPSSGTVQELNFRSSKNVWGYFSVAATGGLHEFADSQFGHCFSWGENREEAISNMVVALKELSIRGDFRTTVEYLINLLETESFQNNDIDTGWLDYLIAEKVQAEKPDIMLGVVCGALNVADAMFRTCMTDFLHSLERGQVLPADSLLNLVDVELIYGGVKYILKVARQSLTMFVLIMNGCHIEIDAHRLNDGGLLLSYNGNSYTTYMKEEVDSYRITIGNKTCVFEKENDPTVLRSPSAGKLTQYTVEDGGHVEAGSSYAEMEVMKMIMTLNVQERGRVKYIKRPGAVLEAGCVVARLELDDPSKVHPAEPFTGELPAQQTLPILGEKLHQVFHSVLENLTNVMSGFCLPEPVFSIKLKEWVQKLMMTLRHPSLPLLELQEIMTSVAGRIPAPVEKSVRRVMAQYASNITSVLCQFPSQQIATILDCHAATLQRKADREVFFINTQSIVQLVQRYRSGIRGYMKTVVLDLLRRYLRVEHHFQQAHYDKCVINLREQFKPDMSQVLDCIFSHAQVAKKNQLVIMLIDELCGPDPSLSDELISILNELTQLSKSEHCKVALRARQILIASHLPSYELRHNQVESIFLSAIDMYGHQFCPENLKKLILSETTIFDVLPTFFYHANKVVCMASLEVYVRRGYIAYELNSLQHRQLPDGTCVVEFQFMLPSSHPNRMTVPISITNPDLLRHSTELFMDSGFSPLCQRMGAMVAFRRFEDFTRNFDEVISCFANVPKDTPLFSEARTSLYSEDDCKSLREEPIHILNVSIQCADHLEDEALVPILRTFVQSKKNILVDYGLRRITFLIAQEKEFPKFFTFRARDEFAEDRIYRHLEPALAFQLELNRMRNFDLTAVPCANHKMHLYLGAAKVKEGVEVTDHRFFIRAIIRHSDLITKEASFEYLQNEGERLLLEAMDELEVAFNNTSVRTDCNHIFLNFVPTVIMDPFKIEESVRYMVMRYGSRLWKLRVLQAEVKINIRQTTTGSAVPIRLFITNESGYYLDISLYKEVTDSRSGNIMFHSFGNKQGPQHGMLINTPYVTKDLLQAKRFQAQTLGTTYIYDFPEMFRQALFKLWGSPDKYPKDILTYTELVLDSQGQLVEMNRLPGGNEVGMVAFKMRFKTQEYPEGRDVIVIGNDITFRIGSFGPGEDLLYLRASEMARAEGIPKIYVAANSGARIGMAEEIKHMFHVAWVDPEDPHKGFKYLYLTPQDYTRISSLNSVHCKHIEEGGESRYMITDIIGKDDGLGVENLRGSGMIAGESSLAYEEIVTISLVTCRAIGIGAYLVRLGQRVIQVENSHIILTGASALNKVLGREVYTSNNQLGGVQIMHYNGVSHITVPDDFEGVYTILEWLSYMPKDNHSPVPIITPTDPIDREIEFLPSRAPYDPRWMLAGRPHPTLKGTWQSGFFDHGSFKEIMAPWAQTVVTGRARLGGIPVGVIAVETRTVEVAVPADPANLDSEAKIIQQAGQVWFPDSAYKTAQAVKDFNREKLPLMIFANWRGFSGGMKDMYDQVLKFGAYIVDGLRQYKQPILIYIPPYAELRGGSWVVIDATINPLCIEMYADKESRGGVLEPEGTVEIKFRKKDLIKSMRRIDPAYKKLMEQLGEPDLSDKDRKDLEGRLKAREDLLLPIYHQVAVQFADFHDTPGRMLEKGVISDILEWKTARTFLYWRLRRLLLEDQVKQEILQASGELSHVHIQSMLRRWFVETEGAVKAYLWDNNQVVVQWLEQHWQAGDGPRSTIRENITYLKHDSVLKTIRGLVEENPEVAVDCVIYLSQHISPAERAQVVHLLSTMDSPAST

| melting point [°C] | inhibition at 10 µM [1] [%] | ACC2 inhibitory rate at 10 μM (%) ([1]; 10 µM) | SMILES | malonyl-CoA (nmol/g-tissue), Malonyl-CoA content of femoral muscle at 2 hours after dosing [2] [nmol/g-tissue] |
| --- | --- | --- | --- | --- |
| 179 to 180 | 101 |  | CC(=O)N[C@@H](C)COc1ccc(-c2nc3ccc(OCC4CC4)cc3o2)nc1 [Example 1, N-[(1S)-2-({6-[6-(cyclopropylmethoxy)-1,3-benzoxazol-2-yl]pyridin-3-yl}oxy)-1-methylethyl]acetamide] |  |
| 156 to 157 | 92 |  | CC(=O)N[C@@H](C)COc1cc(-c2nc3cc(OCC4CC4)ccc3o2)on1 [Example 2, N-[(1S)-2-({5-[5-(cyclopropylmethoxy)-1,3-benzoxazol-2-yl]isoxazol-3-yl}oxy)-1-methylethyl]acetamide] |  |
| 158 to 159 | 95 |  | CC(=O)N[C@@H](C)COc1cnc(-c2nc3ccc(OCC4CC4)cc3o2)c(F)c1 [Example 6, N-[(1S)-2-({6-[6-(cyclopropylmethoxy)-1,3-benzoxazol-2-yl]-5-fluoropyridin-3-yl}oxy)-1-methylethyl]acetamide] | 0.513 ± 0.048 |
|  | 83 |  | CCOc1ccc2nc(-c3ccc(OC[C@H](C)NC(C)=O)cn3)oc2c1 [Example 28, N-[(1S)-2-{[6-(6-ethoxy-1,3-benzoxazol-2-yl)pyridin-3-yl]oxy}-1-methylethyl]acetamide] | 0.663 ± 0.119 |
|  |  | 100 | C[C@@H](COc1cnc(-c2nc3ccc(OCC4CC4(F)F)cc3o2)c(F)c1)NC(N)=O (stereo partly drawn) [Example 112, Diastereomer of 1-{(1S)-2-[(6-{6-[(2,2-difluorocyclopropyl)methoxy]-1,3-benzoxazol-2-yl}-5-fluoropyridin-3-yl)oxy]-1-methylethyl}urea (retention time: long)] |  |
|  | 97 |  | CCC1(c2ccc(OC[C@H](C)NC(C)=O)cn2)Cc2ccc(OCC3CC3)cc2O1 (stereo partly drawn) [Example 119, Diastereomer of N-[(1S)-2-({6-[6-(cyclopropylmethoxy)-2-ethyl-2,3-dihydro-1-benzofuran-2-yl]pyridin-3-yl}oxy)-1-methylethyl]acetamide] |  |

From patent US8729102B2, “Bicyclic compound” (Takeda Pharmaceutical Company Limited, priority 2010, dated 2014)
